Data published in patent USRE38423E1, “Process for in vitro analysis of toxic and allergenic substances” (Biovator Technologies AB, priority 1995, dated 2004).

Assays:
[1] = tested on: human whole blood; format: cell-based; design: key to IL-1 / IFNγ / Neopterin / TNF / IL-6 / IL-8 / IL-2 / STL-2R / SCD8 / IL-10 / IL-4: index relative to medium control = 100; conditions: for IFNγ / IL-1 / IL-2 / IL-4 / IL-6 / IL-8 / IL-10 / Neopterin / SCD8 / STL-2R / TNF: blood from 5 normal humans, highest value at any time or concentration, related to medium control given the value 100
Experimental: (§1) Five healthy blood donors from both sexes ranging in age between 25 and 55 years are used. Blood is collected by venous puncture into endotoxin free heparin tubes (Coatech, Ljungby, Sweden) that contains 120 IU heparin and are filled with 4 ml of blood. None of the blood donors are allowed to have a history of allergy or atopic excema or any indication of ongoing disease of any kind.
(§2) 100 ul of blood is added to the wells of Nunclon microtiter plates.
(§3) For substances to be tested for effects in the system different concentration are added to the blood. The highest concentration of the substance being non toxic to the cells indicated by inspection in microscopic in presence of vital stain e.g. trypan blue is used as start concentration.
(§4) The microtiter plates are incubated at 37° C. at 90% humidity and with 5% CO2. An appropriate number of identical plates are prepared and are taken out of the incubator for testing at intervals of, 1 day, 2 days and 6 days.
Another set of plates is prepared with the same design as in “Culture protocol” above. Cytokines released from the cultured cells are measured in the supernatants obtained after centrifugation of the plates at 650 g for 10 minutes. The supernatants were either tested immediately or stored at −20° C. until tested.
The instructions of the manufacturers were followed. All these tests are enzyme immunoassays (EIA:s). The principle is that microtiter plate wells are labeled with a cytokine specific capture antibody. If cytokine is present in the samples added to the wells it will be captured to the bottom of the well. […] The reaction is thereafter measured as colour developed after addition of a substrate for the enzyme. The values for the test wells is compared with a standard curve obtained by adding a series of known amounts of cytokine. The values obtained for control wells with no substance added are used as background values for cytokine levels and proliferation as measured by ^3H-thymidin incorporation. Positive indications are recorded when values above 2 SD of the variation of the controls are obtained.
(§5) The highest value as compared to medium control obtained at any time or concentration for each substance is used as indicator value in the table and related to medium control put to value 100 index.

[2] = tested on: human whole blood; test: Proliferation assay, 3H-thymidine incorporation in diluted whole blood cultures; format: cell-based; conditions: for Prolif. Index (3H-Thymidine Proliferation): blood from 5 normal humans, highest value at any time or concentration, related to medium control given the value 100; for proliferative response (in words): summary of results, 3H-thymidine incorporation
Experimental: as §1, §2, §3, §4
One set of plates is used to estimate the proliferative activity of the donor cells spontaneously (=medium or substance dissolved controls); in response to PHA, and in response to samples of test substances at various concentrations. The highest concentration of sub-stance non toxic to the cells indicated by inspection in microscope in presence of vital stain (e.g. trypan blue) is used as start concentration. Ser. dilutions of the sub-stance is then performed as stated above.
The plates were incubated for additional 4 hours at 37° C. The cells were then collected using a Skatron cell harvester (Skatron, Lier, Norway) and Titertek paper filters. The result of his procedure is that the DNA of the cells is stuck in the filter paper, whereas the ^3H-thymidin not incorporated in the DNA passes through the filter and goes with the waste washing water. The radioactivity in the filter papers is thus proportional to the DNA synthesis that occured during the 4 hours preceding the harvesting procedure. The radiactivity of the filter papers is determined in a Packard liquid scintillation counter, and thymidine incorporation was expressed as counts per minute (cpm).
as §5

[3] = summary of results, secreted into supernatants

Molecule | IFNγ [1] | IL-1 [1] | IL-2 [1] | IL-4 [1] | IL-6 [1] | IL-8 [1] | IL-10 [1] | Neopterin [1] | SCD8 [1] | STL-2R [1] | TNF [1] | Neopterin induction (in words) [1, 3] | immune lymphocyte class / specific immune response cytokines induced (in words) [1, 3] | unspecific inflammatory / tissue toxic group cytokines induced (in words) [1, 3] | Prolif. Index (3H-Thymidine Proliferation) [2] | proliferative response (in words) [2] | predicted adverse reaction from cytokine pattern (in words) ([1]; interpretation of the cytokine profile)
[Cl][Ni][Cl] [IV, Nickel chloride] | 1220 | 1165 | 445 | 80 | 660 | 380 | 800 | 90 | 110 | 130 | 225 | no Neopterin | IFN-gamma, IL-2 and IL-10 | IL-1, IL-6, TNF and IL-8 | 1340 | low proliferative response | 
Triton X-100 | 120 | 630 | 85 | 85 | 460 | 200 | 95 | 110 | 95 | 115 | 400 |  |  | IL-1, IL-6 and TNF | 200 | induced proliferation | positive tissue irritant
phytohemagglutinin [Plus] | 800 | 690 | 750 | 820 | 1620 | 780 | 1250 | 440 | 940 | 1820 | 420 |  | neopterin, IFN-gamma IL-2 and IL-4 and IL-10 | IL-1, IL-6, TNF and IL-8 | 2600 | strong proliferative response | 
